Experimental data from a melting point compilation (Tetko et al.; mined from patent text by program, amines drawn as free bases though some values may be those of a salt).

First: CNC(=O)C(CCCl)(c1ccccc1)c1ccccc1
Second: CCOC(=O)N=P(c1ccccc1)(c1ccccc1)c1ccccc1C
The melting point of the first is higher: 150 to 152 °C for the first, 113 to 114 °C for the second.

First: O=C(O)CON=c1c2nccc3cccc(c32)n2cccc12
Second: Cc1oc(-c2ccc(F)cc2)nc1COc1cccc(CN(O)C(N)=O)c1
The melting point of the first is higher: 212 °C for the first, 156 to 157 °C for the second.

First: Fc1ccc(-c2ccc(N3CCCN(c4ccc(-c5ccc(F)cc5)cn4)CC3)nc2)cc1
Second: CCn1c(-c2ccnc3ccccc23)nc(-c2ccncc2)c1-c1ccc(Cl)cc1
The melting point of the first is higher: 268 to 270 °C for the first, 167 to 169 °C for the second.

First: Cc1ccc2c([N+](=O)[O-])c(Cl)ccc2n1
Second: O=[N+]([O-])c1cc2nc(O)c(O)nc2c2c([N+](=O)[O-])cccc12
The melting point of the first is lower: 123 to 124 °C for the first, > 300 °C for the second.

Compared with Cc1nn(C)c(-c2ccc(F)cc2)c1C=O, Cc1ccc(-c2nc3ccc(C)cn3c2C(O)C(=O)N(C)C)cc1 (centres undefined) is higher in melting point: 130 to 131 °C for the first, 175 to 177 °C for the second.

Compared with Cc1cc(C)c2c(c1O)C(NS(C)(=O)=O)CC2 (centres undefined), CCOC(=O)c1cc2c(C)c(C(=O)OCC)sc2[nH]1 is higher in melting point: 114 to 116 °C for the first, 139 °C for the second.

First: C=CCNC(=O)C1=Cc2c1ccc(OC)c2OC
Second: CCCCOc1ccc(Cc2cnc(N)nc2N)cc1OC
The melting point of the first is lower: 98 to 99 °C for the first, 143 to 147 °C for the second.

First: COc1cc(OC)nc(C2(O)OC(=O)c3c2ccnc3C)n1 (centres undefined)
Second: COc1cccc(C(F)(F)F)c1NS(=O)(=O)c1nc2nc(O)cc(O)n2n1
The melting point of the first is lower: 203 to 204 °C for the first, 237 to 243 °C for the second.

CCn1nc2c(n1)C(N1CCN(C)CC1)=Nc1cc(F)ccc1N2 and CN1CCN(C2=C3CN(C)CC34CC(=CC#N)C=CC4=NC=C2)CC1 (centres undefined) fall in the same range of melting point: 178 to 180 °C for the first, 178 to 180 °C for the second.

First: COc1ccc(C=CC(=O)c2cc(Oc3ccccc3)c(NS(C)(=O)=O)cc2O)cc1OC
Second: O=Cc1ccccc1OC(=O)C(=O)Oc1ccccc1C=O
The melting point of the first is higher: 210 to 212 °C for the first, 134 to 135 °C for the second.

First: CCN(CC)c1ccc2nc3c4ccccc4c(=Nc4ncc(Cl)cc4Cl)cc-3oc2c1
Second: CN(C)Cc1nnc(CN2C(=O)c3ccccc3C2=O)n1-c1ccc(Cl)cc1C(=O)c1ccccc1
The melting point of the first is lower: 192 to 193 °C for the first, 206 to 208 °C for the second.

First: O=C1NC(C(Cl)(Cl)Cl)Oc2ccccc21 (centres undefined)
Second: O=C1Nc2cccc(Cl)c2C(=O)N2C[C@H](O)C[C@@H]12
The melting point of the first is lower: 175 to 177 °C for the first, 284 to 287 °C for the second.

First: O=C(NC(=O)c1ccc(F)c(OC(F)F)c1F)NC1CC1
Second: CSc1c(Cl)ccc(C(=O)O)c1F
The melting point of the first is lower: 128 to 130 °C for the first, 183 to 185 °C for the second.

Compared with CCOC(=O)c1cn(-c2nncs2)c2cc(F)c(F)cc2c1=O, Cc1cc(O)c(SCc2ccc(Cl)cc2Cl)c(=O)o1 is lower in melting point: 235 to 238 °C for the first, 163 to 164 °C for the second.

First: O=C(N[C@@H](Cc1ccc(O)cc1)C(=O)O)C(=Cc1ccccc1)NC(=O)C(F)(F)F
Second: NC(=O)C[C@H](NC(=O)OCc1ccccc1)C(=O)N[C@@H](Cc1ccccc1)[C@H](O)C(=O)O
The melting point of the first is lower: 165 to 175 °C for the first, 225 to 227 °C for the second.

First: COC=C(C(=O)OC)N(C)c1cc(-c2cccc(OC)c2)ncn1
Second: COC(=O)C(CCSC)NC(=O)c1ccc(NC(=O)Cc2cn(C)cn2)cc1-c1ccccc1 (centres undefined)
The melting point of the first is higher: 87 to 90 °C for the first, 69 to 70 °C for the second.

First: O=c1cc(-c2ccc(OCCO)cc2)oc2ncccc12
Second: O=C1CCCc2ccc(OCc3ccc4ccccc4n3)cc21
The melting point of the first is higher: 157 to 159 °C for the first, 98.5 to 102 °C for the second.

First: COC(=O)Nc1nc2cc(SCC3(C)CC3(Cl)Cl)ccc2[nH]1 (centres undefined)
Second: CNC(=O)c1cc(Cl)cc(C)c1NC(=O)c1cc(Br)nn1-c1ncccc1Cl
The melting point of the first is higher: 175 to 178 °C for the first, 162 to 164 °C for the second.

Compared with O=C(C=Cc1ccccc1)N1CCc2c([nH]c3ccccc23)C12CCC(c1cccc(F)c1)(N1CCC1)CC2 (centres undefined), O=C(Oc1ccccc1)N1CCN2C(=O)OC(c3ccccc3)(c3ccccc3)C2C1 (centres undefined) is higher in melting point: 120 to 126 °C for the first, 189 to 191 °C for the second.

Compared with CC(=O)OC1CSC(Oc2cnccc2-c2ccc(C(F)(F)F)cc2)C(OC(C)=O)C1OC(C)=O (centres undefined), CC(C)c1ccc(S(=O)(=O)Nc2ccc(C(F)(F)F)cc2I)cc1 is lower in melting point: 168 °C for the first, 101 °C for the second.

First: CC(C)N1C(=O)c2cccnc2NS1(=O)=O
Second: CCC(Oc1cnc(Cl)c(Cl)c1)C(=O)NC(C)(C)C#CCO (centres undefined)
The melting point of the first is higher: 190 °C for the first, 129 to 131 °C for the second.

Compared with CCOC(=O)C(CC)Oc1ccc(-c2nc(-c3ccc(OC(CC)C(=O)OCC)cc3O)nc(-c3ccc(OC(CC)C(=O)OCC)cc3O)n2)c(O)c1 (centres undefined), Cc1[nH]c(/C=C2\C(=O)Nc3cc(NC(=O)NC(=O)c4ccccc4)ccc32)c(C)c1C(=O)O is higher in melting point: 101 to 105 °C for the first, 270 to 275 °C for the second.

First: Cc1c(NC(=O)c2ccc(CC(=O)C3CCCO3)cc2)ccc2cc(CN3CCCC3)cnc12 (centres undefined)
Second: Cc1ccc(C2CCN(C(=O)Nc3ccc4cc(CN5CCCC5)cnc4c3)CC2)cc1
The melting point of the first is lower: 102 °C for the first, 244 to 246 °C for the second.

First: COc1sc(-c2ccc(NS(=O)(=O)c3sc4ccc(F)cc4c3C)c(S(C)(=O)=O)c2)nc1C
Second: CCN(CC)CCOc1ccc2cc3ccc(OCCN(CC)CC)c(Br)c3nc2c1Br
The melting point of the first is higher: 216 to 217 °C for the first, 66 to 68 °C for the second.

In the case of Cc1c(C(=O)C(N)=O)c2c(OCC(=O)O)cc3c(c2n1Cc1ccccc1)CCCC3, the melting point was > 300 °C.
